This test deals with Src Kinase (p60c-Src) (Homo sapiens, UniProt P12931). Put plainly: General Assay Method for Src-Kinase (DELFIA time-resolved fluorometry, poly(Glu,Tyr) substrate). In kind it is biochemical. The note with it: Src kinase 1:8000, 100 μM ATP, 15 min. at room temp; read-out: Activity (uMol. Delfia assay. IC50). Here is the method: The compounds 1-25 above were assayed for activity with respect to the Src protein tyrosine kinase by the fluorometric method described in Measurement of the Protein Tyrosine Kinase Activity of c-Src Using Time-Resolved Fluorometry of Europium Chelates, Braunwalder, A. F. et al., Analytical Biochemistry 238, 159-164 (1996), the disclosure of which is incorporated herein by reference, using the materials and procedures further specified below.
Sequence of Src Kinase (p60c-Src) (P12931 whole entry): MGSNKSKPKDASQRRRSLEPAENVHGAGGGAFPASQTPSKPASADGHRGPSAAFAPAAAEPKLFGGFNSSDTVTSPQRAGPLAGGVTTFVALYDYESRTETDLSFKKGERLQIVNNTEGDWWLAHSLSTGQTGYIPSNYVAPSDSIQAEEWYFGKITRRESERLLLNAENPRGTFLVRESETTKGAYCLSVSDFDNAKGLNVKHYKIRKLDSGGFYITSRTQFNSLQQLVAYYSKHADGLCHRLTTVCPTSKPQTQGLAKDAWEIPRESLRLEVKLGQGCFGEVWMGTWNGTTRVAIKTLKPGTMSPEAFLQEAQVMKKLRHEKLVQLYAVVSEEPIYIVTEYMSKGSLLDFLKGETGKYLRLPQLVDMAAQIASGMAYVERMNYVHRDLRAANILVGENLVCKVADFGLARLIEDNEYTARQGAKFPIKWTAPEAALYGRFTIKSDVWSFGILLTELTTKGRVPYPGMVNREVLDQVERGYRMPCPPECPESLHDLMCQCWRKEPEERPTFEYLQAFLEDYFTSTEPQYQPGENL
General Assay Method for Src-Kinase:
Costar 384 Clear, non-treated, high-binding plates
Sigma poly(Glu, Tyr) 4:1, Ave. MW 35,000
Sigma ATP (1.5 mM Stock Soln. in H2O)
MES Buffer: 30 mM MES (pH 6.8)
MBI Buffer: (MES+0.4 mg/ml BSA+0.003% IGEPAL)
Wallac Eu-labelled anti-phosphotyrosine Antibody (CR04-100)
Antibody Dilution Buffer: (MES+3%BSA)
DELFIA® Wash Solution (TTBS):
DELFIA Enhancement Solution
The plates were coated with 0.1 mg/ml poly(Glu, Tyr) in Coating Solution, 35 μl/well. It was let stand overnight at room temp. The plates were then washed 3 times with MES (100 μl/wash).
The reaction was stopped by aspiration, and then washed 3 times with MES (100 μl/wash). 20 μl 0.4 ng/μl of antibody in Antibody Dilution Buffer (final=8 ng Ab/well) was added and then incubated for 30 min. at RT. The antibody solution was removed by aspiration and then washed 3 times with 1X DELFIA Wash Solution. 20 μl DELFIA Enhancement Solution was added and the value was read.

Each structure is given as a SMILES string.

Consider `N=C(N)c1ccc(C(=O)N(Cc2cccc(Oc3ccccc3)c2)C(Cc2ccc(-c3ccccc3)cc2)C(=O)NCC(N)=O)cc1` (stereo not shown) [Example 1, N-[4-Amidinobenzoyl]-N-[3-phenoxybenzyl]-3-(4-biphenyl)-alanyl-glycyl-amide], for which the IC50 was 22 µM. As for `CC(C)(C)c1ccc(Oc2cccc(CN(C(=O)c3cccc(C(=N)N)c3)C(CC3CCCCC3)C(=O)NCC(N)=O)c2)cc1` (stereo not shown) [Example 2, 3-amidinobenzoyl-(3-(4-tert-butylphenoxy)benzyl)-cyclohexylylalanyl-glycyl-amide], the half-maximal inhibitory concentration (IC50) stood at 23 µM.

In the case of `CC(C)(C)c1ccc(Oc2cccc(CN(C(=O)c3cccc(C(=N)N)c3)C(Cc3ccc(N)cc3)C(=O)NCC(N)=O)c2)cc1` (stereo not shown) [Example 3, N-[3-Amidinobenzoyl]-N-[3-(4-tert-butylphenoxy)benzyl]-4-aminophenylalanyl-glycyl-amide], the half-inhibitory concentration (IC50) is 45 µM. For `CC(C)(C)c1ccc(Oc2cccc(CN(C(=O)c3cccc(C(=N)N)c3)C(Cc3cccc4ccccc34)C(=O)NCC(N)=O)c2)cc1` (stereo not shown) [Example 4, N-[3-Amidinobenzoyl]-N-[3-(4-tert-butylphenoxy)benzyl]-1-naphthylalanyl-glycyl-amide] the value was 18 µM. Regarding `CC(C)(C)c1ccc(Oc2cccc(CN(C(=O)c3cccc(C(=N)N)c3)C(CCCNC(=N)N)C(=O)NCC(N)=O)c2)cc1` (stereo not shown) [Example 5, N-[3-Amidinobenzoyl]-N-[3-(4-tert-butylphenoxy)benzyl]-arginyl-glycyl-amide], the IC50 came out at 12.5 µM.

With `CC(C)(C)c1ccc(Oc2cccc(CN(C(=O)c3ccc(C(=N)N)cc3)C(Cc3c[nH]c4ccccc34)C(=O)NCC(N)=O)c2)cc1` (stereo not shown) [Example 6, 4-amidinobenzoyl-(3-(4-tert-butylphenoxy)phenoxybenzyl)-tryptanyl-glycyl-amide], the concentration for half-maximal inhibition (IC50) turned out to be 14 µM. The value for `N=C(N)c1ccc(C(=O)N(Cc2ccc(-c3ccccc3)cc2)C(Cc2ccc(-c3ccccc3)cc2)C(=O)NCC(N)=O)cc1` (stereo not shown) [Example 7, N-[4-Amidinobenzoyl]-N-[4-biphenylmethyl]-3-(4-biphenyl)alanyl-glycyl-amide] was 13 µM. Take `NC(=O)C(Cc1ccc2ccccc2c1)NC(=O)Nc1ccc(N2CCN(C3CCCCC3)CC2)c(NC(=O)CCCc2ccccc2)c1` (stereo not shown) [Example 8, 4-Cyclohexyl-1-{[2-(4-phenylbutanoyl)amino]-4-[1-aminocarbonyl-2-(2-naphthyl)ethylamino]carbonylaminophenyl}piperazine]: the half-inhibitory concentration (IC50) worked out at 8.5 µM. As for `NC(=O)C(Cc1ccc2ccccc2c1)NC(=O)Nc1ccc(N2CCN(C3CCCCC3)CC2)c(NC(=O)/C=C/c2ccccc2)c1` (stereo not shown) [Example 9, 4-Cyclohexyl-1-{[2-cinnamoylamino]-4-[1-aminocarbonyl-2-(2-naphthyl)ethylamino]carbonylaminophenyl}piperazine], the IC50 was found to be 17 µM.

As to `NC(=O)C(CCc1ccccc1)NC(=O)Nc1ccc(N2CCN(C3CCCCC3)CC2)c(NC(=O)/C=C/c2ccccc2)c1` (stereo not shown) [Example 10, 4-Cyclohexyl-1-{[2-cinnamoylamino]-4-[(1-aminocarbonyl-3-phenyl)propylamino]carbonylaminophenyl}piperazine], the IC50 was 15.5 µM. For `NC(=O)C(CCc1ccccc1)NC(=O)Nc1ccc(N2CCN(C3CCCCC3)CC2)c(NC(=O)CCCc2ccccc2)c1` (stereo not shown) [Example 11, 4-Cyclohexyl-1-{[2-(4-phenylbutanoyl)amino]-4-[(1-aminocarbonyl-3-phenyl)propylamino]carbonylaminophenyl}piperazine] the value was 11 µM; for `NC(=O)C(CC1CCCCC1)NC(=O)Nc1ccc(N2CCN(C3CCCCC3)CC2)c(NC(=O)/C=C/c2ccccc2)c1` (stereo not shown) [Example 12, 4-Cyclohexyl-1-{[2-cinnamoylamino]-4-[(1-aminocarbonyl-2-cyclohexyl)ethylamino]carbonylaminophenyl}piperazine], 18.5 µM.

As for `NC(=O)C(Cc1ccc2ccccc2c1)NC(=O)Nc1ccc(N2CCCN(C(=O)C3CCNCC3)CC2)c(NC(=O)CCCc2ccccc2)c1` (stereo not shown) [Example 13, 4-(Piperidin-4-yl)carbonyl-1-{[2-(4-phenylbutanoyl)amino]-4-[1-aminocarbonyl-2-(2-naphthyl)ethylamino]carbonylaminophenyl}homopiperazine], the IC50 came to 13 µM.

On to `NC(=O)C(Cc1ccc2ccccc2c1)NC(=O)Nc1ccc(N2CCCN(C(=O)C3CCNCC3)CC2)c(NC(=O)c2cc3ccccc3o2)c1` (stereo not shown) [Example 14, 4-(Piperidin-4-yl)carbonyl-1-{[2-(2-benzofuranoyl)amino]-4-[1-aminocarbonyl-2-(2-naphthyl)ethylamino]carbonylaminophenyl}homopiperazine], for which the half-inhibitory concentration (IC50) was found to be 2.75 µM.

Take `NC(=O)C(CC1CCCCC1)NC(=O)Nc1ccc(N2CCCN(C(=O)C3CCNCC3)CC2)c(NC(=O)c2cc3ccccc3o2)c1` (stereo not shown) [Example 15, 4-(Piperidin-4-yl)carbonyl-1-{[2-(2-benzofuranoyl)amino]-4-[1-aminocarbonyl-2-cyclohexylethylamino]carbonylaminophenyl}homopiperazine]: the 50% inhibitory concentration (IC50) came to 6.5 µM. In the case of `NC(=O)C1CCC(CNC(=O)Nc2ccc(N3CCCN(C(=O)C4CCNCC4)CC3)c(NC(=O)c3cc4ccccc4o3)c2)CC1` (stereo not shown) [Example 16], the IC50 worked out at 36 µM. As for `CNCC(=O)N1CCCN(c2ccc(NC(=O)NCC3CCC(C(N)=O)CC3)cc2NC(=O)c2cc3ccccc3o2)CC1` (stereo not shown) [Example 17], the IC50 is 37 µM.

On to `NC(=O)C1CCC(CNC(=O)Nc2ccc(N3CCCN(C(=O)C4CCCN4)CC3)c(NC(=O)c3cc4ccccc4o3)c2)CC1` (stereo not shown) [Example 18, 4-(Pyrrolidin-2-yl)carbonyl-1-[2-[(2-benzo-furanoyl)amino]-4-[[(4-aminocarbonyl)cyclohexyl-methyl-amino]carbonylamino]phenyl] homopiperazine], for which the half-maximal inhibitory concentration (IC50) was found to be 19 µM. As to `NC(=O)C1CCC(CNC(=O)Nc2ccc(N3CCC(N4CCCCC4)CC3)c(NC(=O)c3cc4ccccc4o3)c2)CC1` (stereo not shown) [Example 19], the IC50 came out at 22 µM. On to `NC(=O)C(CC1CCCCC1)NC(=O)Nc1ccc(N2CCCN(C(=O)C3CCNCC3)CC2)c(NC(=O)CCCc2ccccc2)c1` (stereo not shown) [Example 20], for which the IC50 was 28 µM.

For `NC(=O)C(CCc1ccccc1)NC(=O)Nc1ccc(N2CCCN(C(=O)C3CCNCC3)CC2)c(NC(=O)CCCc2ccccc2)c1` (stereo not shown) [Example 21], the IC50 worked out at 22 µM. As for `CC(C)C(NS(=O)(=O)c1cc(NC(=O)C2CCCN2)ccc1N1CCC(Cc2ccccc2)CC1)C(N)=O` (stereo not shown) [Example 22, N-(1-Aminocarbonyl-2-methylpropyl)-2-[(4-phenylmethyl)piperidin-1-yl]-5-[(2-pyrrolidinocarbonyl)amino]phenylsulfonamide], the concentration for half-maximal inhibition (IC50) stood at 14 µM. Turning to `CC(C)C(NS(=O)(=O)c1cc(NC(=O)C2CCNCC2)ccc1N1CCC(Cc2ccccc2)CC1)C(N)=O` (stereo not shown) [Example 23], the IC50 turned out to be 12 µM. The value for `CC(C)C(NS(=O)(=O)c1cc(NC(=O)/C=C/c2ccccc2)ccc1N1CCN(C2CCCCC2)CC1)C(N)=O` (stereo not shown) [Example 24, 1-[2-[N-(2-Aminocarbonyl-3-methylbutyl)sulfonamido]-5-[2-cinnamoylamino]]phenyl-4-cyclohexylpiperazine] was 42 µM; that for `NC(=O)C1CCC(CNS(=O)(=O)c2cc(NC(=O)C3CCCN3)ccc2N2CCC(Cc3ccccc3)CC2)CC1` (stereo not shown) [Example 25, N-[[(4-Aminocarbonyl)cyclohexylmethyl]amino]-[2-[(4-phenylmethyl)piperidin-1-yl]-5-[(2-pyrrolidinocarbonyl)-amino]phenyl]sulfonamide] was 27.5 µM.

The IC50 is the concentration that gives 50% inhibition.

The values are drawn from patent US20030045480A1, “Method of treating hyperresorptive bone disorders” (priority 2001, published 2003).
